Experimental data reported in patent US20260207570A1, “OPTIMIZED DOSING OF LERIGLITAZONE” (MINORYX THERAPEUTICS S.L., priority 2022, published 2026).
Several values for one entry are separate records, joined by “and”; a condition that tells them apart may be missing. Identical values can stand only once. Like-named read-outs stand apart in the source and are kept apart here.

Tests used:
[1] = Phase 1 multiple ascending dose (MAD) pharmacokinetics with CSF collection in healthy volunteers; assay type: in vivo, human; details: for CSF C4h / concentration at 4 h: total; for accumulation RCmax: day 8 vs day 1; for Vd/F: read-out: Vz/F
Protocol: (§1) Study design: A phase 1, randomized, double blind, placebo-controlled, single-center clinical study in 33 male healthy volunteers (HV) (19-54 years, 63.2-95.7 Kg) was conducted with leriglitazone HCl and divided in two parts: a single ascending dose (SAD) with three dose levels (30, 90 and 270 mg) in fasted conditions, followed with two dose levels (90 and 270 mg) in fed conditions; a multiple ascending dose (MAD) with a double-blind, parallel-design with two dose levels (135 and 270 mg) for 8 days and a separate cohort of subjects in an open-label parallel design with two dose levels (135 and 270 mg) including cerebrospinal fluid (CSF) collection on day 8. In the fasted conditions a fasting period of at least 4 hours was required before obtaining plasma samples. The food effect (FE) was assessed by comparing fasted with fed conditions (dosing after a high-fat breakfast per FDA definition with a calculated caloric content of 918 kcal). In the MAD part (fed) the medication was taken before a normal breakfast. Leriglitazone HCl was supplied by ChemConnection and an oral suspension of leriglitazone (20% w/v kleptose, 2% ethanol in 100 mM phosphate buffer pH=7.8) at 6 mg/ml was used in the study.
(§2) Blood, Urine and CSF sampling: In the SAD, blood samples were drawn at the following time points: pre-dose and 0.25, 0.5, 0.75, 1, 1.5, 2, 2.5, 3, 4, 5, 6, 8, 10, 12, 16, 24, 36, 48, 72, 96 and 120 hours post-dose. Urine was collected at pre-dose (within 12 hours prior to dosing) and over 0-6, 6-12, 12-24, 24-36, 36-48 hours post-dose collection intervals. In the MAD, blood samples were collected on day 1 at pre-dose and 0.25, 0.5, 0.75, 1, 1.5, 2, 2.5, 3, 4, 5, 6, 8, 10, 12, and 16 hours post-dose and at pre-dose and at 4 hours post-dose on day 2 to day 7, and on day 8 at pre-dose and 0.25, 0.5, 0.75, 1, 1.5, 2, 2.5, 3, 4, 5, 6, 8, 10, 12, 16, 24, 36, 48, 72, 96 and 120 hours post-dose. CSF were taken on day −1 and on day 8, at 4 hours post-dose.
(§3) Pharmacokinetic parameter calculation: PK parameters (Cmax, Tmax, t1/2, AUC0-t, CL/F, Vz/F, AUC0-t, RAUC, RCmax) were estimated using non-compartmental analysis (NCA) (Phoenix WinNonlin® Version 6.3).
(§4) Statistical analysis: Descriptive statistics for all relevant PK parameters: n, mean, minimum, median, maximum, geometric mean, and coefficient of variation (CV %); analysis of variance on Cmax and AUC to determine dose proportionality and food effect (FE).
The ratio of unbound leriglitazone concentration in brain to unbound concentration in plasma (Kpu,u; Cb,u/Cp,u) was calculated dividing the unbound CSF Cmax by the unbound plasma Cmax. Fractions unbound in plasma (fu,p) to obtain the unbound Cmax values were already reported. Rodriguez-Pascau, L. et al., Sci. Transl. Med. 13, eabc0555 (2021).

[2] = Phase 1 single ascending dose (SAD) pharmacokinetics in healthy volunteers; assay type: in vivo, human; details: for Ka: estimated; for CL/F: geometric mean (CV %)
Protocol: as §1, §2, §3, §4

CL/F ([1]; 135 mg MD Day 1, n = 8, geometric mean (CV %)): 1.59 (17.8) L./h
CSF C4h ([1]; 135 mg MD Day 8, 4 hours post-dose, geometric mean (CV %)): 188 (15.9) ng/mL
CL/F ([1]; 270 mg MD Day 1, n = 8, geometric mean (CV %)): 1.63 (14.4) L./h
CSF C4h ([1]; 270 mg MD Day 8, 4 hours post-dose, geometric mean (CV %)): 332 (13.4) ng/mL
increase of CSF concentration on doubling the dose ([1]; 270 mg vs 135 mg, day 8, 4 hours post-dose): 1.8 fold
accumulation RCmax ([1]; MAD 135 mg): 1.7
accumulation RAUC ([1]; MAD 270 mg dose): 1.81
accumulation RCmax ([1]; MAD 270 mg): 1.7
time to steady state ([1]; MAD 135 or 270 mg daily, fed): 5 days
CSF Cmax ([1]; human, 135 mg): 188 ng/mL
CSF Cmax ([1]; human, 270 mg): 332 ng/mL
brain penetration ([1]; judged from CSF to plasma concentrations): good
Kp at 4 h ([1]; male, CSF and plasma (unbound), oral, human, 135 mg, unbound CSF Cmax / unbound plasma Cmax, read-out: Kpu, u based on CSF): 0.55
Kp ([1]; male, CSF and plasma (unbound), oral, human, 270 mg, unbound CSF Cmax / unbound plasma Cmax, read-out: Kpu, u based on CSF): 0.54
Kp at 4 h ([1]; male, human, CSF and plasma, oral, 135 mg MD Day 8, geometric mean (CV %), read-out: CSF/Plasma): 0.021
Kp at 4 h ([1]; male, human, CSF and plasma, oral, 270 mg MD Day 8, geometric mean (CV %), read-out: CSF/Plasma): 0.024
Kp at 4 h ([1]; male, human, CSF and plasma, oral, day 8, 4 hours post-dose, read-out: total concentrations in CSF as share of total plasma concentrations): 0.022 to 0.025
concentration at 4 h ([1]; male, human, CSF, oral, 135 mg MD Day 8, 4 hours post-dose, geometric mean (CV %), read-out: CSF C4h): 188 ng/mL
concentration at 4 h ([1]; male, human, CSF, oral, 270 mg MD Day 8, 4 hours post-dose, geometric mean (CV %), read-out: CSF C4h): 332 ng/mL
Tmax ([1]; male, human, plasma, oral, 135 mg, 135 mg MD Day 1, n = 8, Median, read-out: Tmax): 3 h
Vd/F ([1]; male, human, plasma, oral, 135 mg, 135 mg MD Day 1, n = 8, geometric mean (CV %)): 47.1 L
Cmax ([1]; male, human, plasma, oral, 135 mg, 135 mg MD Day 1, n = 8, plasma total, geometric mean, read-out: Cmax): 5430 ng/mL
Tmax ([1]; male, human, plasma, oral, 135 mg, 135 mg MD Day 8, n = 8, Median, read-out: Tmax): 4 h
Vd/F ([1]; male, human, plasma, oral, 135 mg, 135 mg MD Day 8, n = 8, geometric mean (CV %)): 27.7 L
Cmax ([1]; male, human, plasma, oral, 135 mg, 135 mg MD Day 8, n = 8, plasma total, geometric mean, read-out: Cmax): 9500 ng/mL
AUC ([1]; male, human, plasma, oral, 135 mg, 135 mg daily, fed, Day 1, read-out: AUC, Observed): 85.1 µg·h/mL
Cmax ([1]; male, human, plasma, oral, 135 mg, 135 mg daily, fed, Day 1, read-out: Cmax, Observed): 5490 ng/mL
Tmax ([1]; male, human, plasma, oral, 135 mg, 135 mg daily, fed, Day 1, read-out: Tmax, Observed): 3 h
AUC ([1]; male, human, plasma, oral, 135 mg, 135 mg daily, fed, Day 8, read-out: AUC, Observed): 145 µg·h/mL
Cmax ([1]; male, human, plasma, oral, 135 mg, 135 mg daily, fed, Day 8, read-out: Cmax, Observed): 9490 ng/mL
Tmax ([1]; male, human, plasma, oral, 135 mg, 135 mg daily, fed, Day 8, read-out: Tmax, Observed): 4 h
AUC ([1]; male, human, plasma, oral, 135 mg, human, 135 mg, read-out: Total plasma AUC): 145 µg·h/mL
Cmax ([1]; male, human, plasma, oral, 135 mg, human, 135 mg, read-out: Total plasma Cmax): 9490 ng/mL
Tmax ([1]; male, human, plasma, oral, 270 mg, 270 mg MD Day 1, n = 8, Median, read-out: Tmax): 3 h
Vd/F ([1]; male, human, plasma, oral, 270 mg, 270 mg MD Day 1, n = 8, geometric mean (CV %)): 52.7 L
Cmax ([1]; male, human, plasma, oral, 270 mg, 270 mg MD Day 1, n = 8, plasma total, geometric mean, read-out: Cmax): 10000 ng/mL
Tmax ([1]; male, human, plasma, oral, 270 mg, 270 mg MD Day 8, n = 7, Median, read-out: Tmax): 4 h
Vd/F ([1]; male, human, plasma, oral, 270 mg, 270 mg MD Day 8, n = 7, geometric mean (CV %)): 29.5 L
Cmax ([1]; male, human, plasma, oral, 270 mg, 270 mg MD Day 8, n = 7, plasma total, geometric mean, read-out: Cmax): 17000 ng/mL
AUC ([1]; male, human, plasma, oral, 270 mg, 270 mg daily, fed, Day 1, read-out: AUC, Observed): 165 µg·h/mL
Cmax ([1]; male, human, plasma, oral, 270 mg, 270 mg daily, fed, Day 1, read-out: Cmax, Observed): 10000 ng/mL
Tmax ([1]; male, human, plasma, oral, 270 mg, 270 mg daily, fed, Day 1, read-out: Tmax, Observed): 3 h
AUC ([1]; male, human, plasma, oral, 270 mg, 270 mg daily, fed, Day 8, read-out: AUC, Observed): 299 µg·h/mL
Cmax ([1]; male, human, plasma, oral, 270 mg, 270 mg daily, fed, Day 8, read-out: Cmax, Observed): 17200 ng/mL
Tmax ([1]; male, human, plasma, oral, 270 mg, 270 mg daily, fed, Day 8, read-out: Tmax, Observed): 4 h
AUC ([1]; male, human, plasma, oral, 270 mg, human, 270 mg, read-out: Total plasma AUC): 299 µg·h/mL
Cmax ([1]; male, human, plasma, oral, 270 mg, human, 270 mg, read-out: Total plasma Cmax): 17200 ng/mL
concentration at 4 h ([1]; male, human, plasma, oral, 270 mg MD Day 8, 4 hours post-dose, geometric mean (CV %), read-out: Plasma C4h): 14200 ng/mL
mean CL/F ([1]; phase 1 MAD part day 8): 0.93 L/h
dose excreted in urine as free analyte ([2]; 48-hour collection period): < 0.4%
dose excreted in urine as the analyte, mostly in a conjugated state ([2]; 48-hour collection period): 6.5%
Ka ([2]; SAD 30 mg Fasted): 6.35 (CV: 676%) 1/h
CL/F ([2]; SAD 30 mg fasted, n = 6): 0.679 (9.0) L/h
Ka ([2]; SAD 90 mg Fasted): 4.43 (CV: 222%) 1/h
Ka ([2]; SAD 90 mg Fed): 0.89 1/h and 0.89 (CV: 68%) 1/h
CL/F ([2]; SAD 90 mg fasted, n = 6): 0.746 (10.1) L/h
CL/F ([2]; SAD 90 mg fed, n = 3): 0.747 (6.7) L/h
Ka ([2]; SAD 270 mg Fasted): 1.92 (CV: 75%) 1/h
Structure (SMILES): CC(O)c1ccc(CCOc2ccc(CC3SC(=O)NC3=O)cc2)nc1 (stereo not shown) [Leriglitazone, 5-[[4-[2-[5-(1-hydroxyethyl)pyridin-2-yl]ethoxy]phenyl]methyl]-1,3-thiazolidine-2,4-dione]
